Experimental data: the Kinase Knowledgebase extract (Sharma et al. 2016)
pIC50: −log10 of the molar value.

Molecular target: PIK3CA (human) (UniProt P42336)
Assay: Assessment of PIK3CA Kinase Activity

PIK3CA (human), sequence (P42336 whole entry, looked up): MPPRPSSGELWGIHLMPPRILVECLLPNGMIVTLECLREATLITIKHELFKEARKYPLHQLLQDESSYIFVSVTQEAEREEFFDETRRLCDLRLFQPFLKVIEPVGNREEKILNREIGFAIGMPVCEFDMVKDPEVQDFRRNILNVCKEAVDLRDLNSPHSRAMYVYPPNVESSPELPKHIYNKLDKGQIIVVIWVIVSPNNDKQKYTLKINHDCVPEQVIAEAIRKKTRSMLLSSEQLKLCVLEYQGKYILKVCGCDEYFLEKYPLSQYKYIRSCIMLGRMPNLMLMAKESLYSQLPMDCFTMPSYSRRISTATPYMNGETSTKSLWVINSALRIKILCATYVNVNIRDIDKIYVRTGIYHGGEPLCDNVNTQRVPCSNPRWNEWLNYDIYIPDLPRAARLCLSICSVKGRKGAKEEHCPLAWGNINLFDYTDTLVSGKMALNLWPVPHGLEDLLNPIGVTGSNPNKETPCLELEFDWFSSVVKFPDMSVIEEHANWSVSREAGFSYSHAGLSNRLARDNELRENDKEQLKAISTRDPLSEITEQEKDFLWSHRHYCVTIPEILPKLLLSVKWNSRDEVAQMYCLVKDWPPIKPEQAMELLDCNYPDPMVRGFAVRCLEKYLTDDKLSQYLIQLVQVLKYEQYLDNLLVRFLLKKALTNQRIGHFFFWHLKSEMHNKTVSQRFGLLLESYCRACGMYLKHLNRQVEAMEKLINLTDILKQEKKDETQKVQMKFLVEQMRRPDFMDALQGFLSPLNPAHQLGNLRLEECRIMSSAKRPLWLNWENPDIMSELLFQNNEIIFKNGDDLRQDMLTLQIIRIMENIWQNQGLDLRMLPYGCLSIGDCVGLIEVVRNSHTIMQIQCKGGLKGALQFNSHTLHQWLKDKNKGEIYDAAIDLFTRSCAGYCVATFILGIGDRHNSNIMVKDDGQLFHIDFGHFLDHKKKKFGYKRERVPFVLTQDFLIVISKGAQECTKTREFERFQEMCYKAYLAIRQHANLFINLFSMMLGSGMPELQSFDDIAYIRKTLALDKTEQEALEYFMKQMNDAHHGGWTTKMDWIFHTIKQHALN

pIC50	Structure (SMILES)
6.00 to 7.00	CN(Cc1cc2nc(-c3cccc(N)c3)nc(N3CCOCC3)c2s1)c1ncc(C(=O)NO)cn1
> 7.00	CN(CCCCCCC(=O)NO)Cc1cc2nc(-c3cccc4[nH]ncc34)nc(N3CCOCC3)c2s1
> 7.00	CNc1ncc(-c2nc(N3CCOCC3)c3sc(CN(C)c4ncc(C(=O)NO)cn4)cc3n2)cn1
6.00 to 7.00	CN(Cc1cc2nc(-c3cccc(C(N)=O)c3)nc(N3CCOCC3)c2s1)c1ncc(C(=O)NO)cn1
6.00 to 7.00	CN(Cc1cc2nc(-c3ccc(CO)cc3)nc(N3CCOCC3)c2s1)c1ncc(C(=O)NO)cn1
6.00 to 7.00	COCCN(CCOC)c1nc(-c2cccc3[nH]ncc23)nc2cc(CN(C)c3ncc(C(=O)NO)cn3)sc12
> 7.00	CN(C)c1ncc(-c2nc(N3CCOCC3)c3sc(CN(C)c4ncc(C(=O)NO)cn4)cc3n2)cn1
6.00 to 7.00	CN(Cc1cc2nc(-c3ccc(C(N)=O)cc3)nc(N3CCOCC3)c2s1)c1ncc(C(=O)NO)cn1
6.00 to 7.00	O=C(NO)c1ccc(NCc2cc3nc(-c4cccc5[nH]ncc45)nc(N4CCOCC4)c3s2)cc1
> 7.00	CN(Cc1cc2nc(-c3cccc(O)c3)nc(N3CCOCC3)c2s1)c1ncc(C(=O)NO)cn1
> 7.00	CCc1ncc(-c2nc(N3CCOCC3)c3sc(CN(C)c4ncc(C(=O)NO)cn4)cc3n2)cn1
> 7.00	O=C(CCCCCN1CCN(Cc2cc3nc(-c4cccc5[nH]ncc45)nc(N4CCOCC4)c3s2)CC1)NO
> 7.00	O=C(O)CN(Cc1cc2nc(-c3cccc4[nH]ncc34)nc(N3CCOCC3)c2s1)c1ncc(C(=O)NO)cn1
6.00 to 7.00	O=C(CCCCNc1cc2nc(-c3cccc4[nH]ncc34)nc(N3CCOCC3)c2s1)NO
> 7.00	N#CCCN(Cc1cc2nc(-c3cccc4[nH]ncc34)nc(N3CCOCC3)c2s1)c1ncc(C(=O)NO)cn1
6.00 to 7.00	Nc1ccc(-c2nc(N3CCOCC3)c3sc(CNc4ncc(C(=O)NO)cn4)cc3n2)cc1
6.00 to 7.00	CN(Cc1cc2nc(-c3ccc4[nH]ccc4c3)nc(N3CCOCC3)c2s1)c1ncc(C(=O)NO)cn1
6.00 to 7.00	CN(CCCCC(=O)NO)Cc1cc2nc(-c3cccc4[nH]ncc34)nc(N3CCOCC3)c2s1
> 7.00	CC(=O)Nc1ccc(-c2nc(N3CCOCC3)c3sc(CN(C)c4ncc(C(=O)NO)cn4)cc3n2)cc1
> 7.00	CN(Cc1cc2nc(-c3cnc(C(N)=O)nc3)nc(N3CCOCC3)c2s1)c1ncc(C(=O)NO)cn1
> 7.00	CN(Cc1cc2nc(-c3ccc(N)cc3)nc(N3CCOCC3)c2s1)c1ncc(C(=O)NO)cn1
> 7.00	CN(C)CCN(Cc1cc2nc(-c3cccc4[nH]ncc34)nc(N3CCOCC3)c2s1)c1ncc(C(=O)NO)cn1
6.00 to 7.00	CS(=O)(=O)N1CCN(Cc2cc3nc(-c4cccc5nn(CCCCC(=O)NO)cc45)nc(N4CCOCC4)c3s2)CC1
> 7.00	Cc1ncc(-c2nc(N3CCOCC3)c3sc(CN(C)c4ncc(C(=O)NO)cn4)cc3n2)cn1
> 7.00	C#CCCN(Cc1cc2nc(-c3cccc4[nH]ncc34)nc(N3CCOCC3)c2s1)c1ncc(C(=O)NO)cn1

pIC50	Structure (SMILES)
> 7.00	NC(=O)CN(Cc1cc2nc(-c3cccc4[nH]ncc34)nc(N3CCOCC3)c2s1)c1ncc(C(=O)NO)cn1
6.00 to 7.00	O=C(CCCCCCN1CCN(Cc2cc3nc(-c4cccc5[nH]ncc45)nc(N4CCOCC4)c3s2)CC1)NO
> 7.00	CN(Cc1cc2nc(-c3cc[nH]c3)nc(N3CCOCC3)c2s1)c1ncc(C(=O)NO)cn1
6.00 to 7.00	COc1cccc(-c2nc(N3CCOCC3)c3sc(CN(C)c4ncc(C(=O)NO)cn4)cc3n2)c1
6.00 to 7.00	Nc1ccc(-c2nc(N3CCOCC3)c3sc(CN4CCN(c5ncc(C(=O)NO)cn5)CC4)cc3n2)cc1
6.00 to 7.00	CN(Cc1cc2nc(-c3ccc(CN)cc3)nc(N3CCOCC3)c2s1)c1ncc(C(=O)NO)cn1
6.00 to 7.00	O=C(NO)c1cnc(NCc2cc3cc(-c4cccc5[nH]ncc45)nc(N4CCOCC4)c3s2)nc1
> 7.00	O=C(NO)c1ccc(NCc2cc3nc(-c4cccc5[nH]ncc45)nc(N4CCOCC4)c3s2)nc1
6.00 to 7.00	CN(C)c1ccc(-c2nc(N3CCOCC3)c3sc(CN(C)c4ncc(C(=O)NO)cn4)cc3n2)cn1
> 7.00	CN(Cc1cc2nc(-c3cccnc3)nc(N3CCOCC3)c2s1)c1ncc(C(=O)NO)cn1
> 7.00	CN(Cc1cc2nc(-c3cccc4[nH]ncc34)nc(N3CCOCC3)c2s1)c1ncc(C=CC(=O)NO)cn1
6.00 to 7.00	CN(Cc1cc2nc(-c3ccc(O)cc3)nc(N3CCOCC3)c2s1)c1ncc(C(=O)NO)cn1
6.00 to 7.00	O=C(CCCCCCNc1cc2nc(-c3cccc4[nH]ncc34)nc(N3CCOCC3)c2s1)NO
6.00 to 7.00	CN(CCCCCC(=O)NO)Cc1cc2nc(-c3cccc4[nH]ncc34)nc(N3CCOCC3)c2s1
> 7.00	COC(=O)CN(Cc1cc2nc(-c3cccc4[nH]ncc34)nc(N3CCOCC3)c2s1)c1ncc(C(=O)NO)cn1
6.00 to 7.00	CCN(Cc1cc2nc(-c3ccc(N)cc3)nc(N3CCOCC3)c2s1)c1ncc(C(=O)NO)cn1
6.00 to 7.00	CC(C)CN(Cc1cc2nc(-c3cccc4[nH]ncc34)nc(N3CCOCC3)c2s1)c1ncc(C(=O)NO)cn1
> 7.00	CN(Cc1cc2nc(-c3cccc4[nH]ncc34)nc(Nc3ccccc3)c2s1)c1ncc(C(=O)NO)cn1
6.00 to 7.00	CN(Cc1cc2nc(-c3cccc4[nH]ncc34)nc(N3CCCCC3)c2s1)c1ncc(C(=O)NO)cn1
6.00 to 7.00	CN(Cc1cc2nc(-c3ccc(N)c(N)c3)nc(N3CCOCC3)c2s1)c1ncc(C(=O)NO)cn1
> 7.00	CN(Cc1cc2nc(-c3cccc4[nH]ncc34)nc(N3CCOCC3)c2s1)c1ccc(/C=C/C(=O)NO)cc1
> 7.00	CC(=O)OCCN(Cc1cc2nc(-c3cccc4[nH]ncc34)nc(N3CCOCC3)c2s1)c1ncc(C(=O)NO)cn1
> 7.00	CN(CC1CCN(c2ncc(C(=O)NO)cn2)CC1)c1cc2nc(-c3cccc4[nH]ncc34)nc(N3CCOCC3)c2s1
6.00 to 7.00	Nc1ccc(-c2nc(N3CCOCC3)c3sc(CNCc4ccc(/C=C/C(=O)NO)cc4)cc3n2)cc1

The next lines start with the compound.

Structure (SMILES)	pIC50
CC(c1cc2nc(-c3cccc4[nH]ncc34)nc(N3CCOCC3)c2s1)N(C)c1ncc(C(=O)NO)cn1 (stereo unspecified)	> 7.00
O=C(NO)c1cnc(N2CCC(CNCc3cc4nc(-c5cccc6[nH]ncc56)nc(N5CCOCC5)c4s3)CC2)nc1	6.00 to 7.00
COc1ccccc1Nc1nc(-c2cccc3[nH]ncc23)nc2cc(CN(C)c3ncc(C(=O)NO)cn3)sc12	6.00 to 7.00
CN(Cc1cc2nc(-c3ccc(C(F)(F)F)cc3)nc(N3CCOCC3)c2s1)c1ncc(C(=O)NO)cn1	6.00 to 7.00
CN(Cc1cc2nc(-c3cncnc3)nc(N3CCOCC3)c2s1)c1ncc(C(=O)NO)cn1	> 7.00
O=C(C=Cc1cc2nc(-c3cccc4[nH]ncc34)nc(N3CCOCC3)c2s1)NO	6.00 to 7.00
CCCN(Cc1cc2nc(-c3cccc4[nH]ncc34)nc(N3CCOCC3)c2s1)c1ncc(C(=O)NO)cn1	> 7.00
O=C(CCCCCNc1cc2nc(-c3cccc4[nH]ncc34)nc(N3CCOCC3)c2s1)NO	6.00 to 7.00
Cc1nc(N)ncc1-c1nc(N2CCOCC2)c2sc(CN(C)c3ncc(C(=O)NO)cn3)cc2n1	> 7.00
O=C(NO)c1cc2nc(-c3cccc4[nH]ncc34)nc(N3CCOCC3)c2s1	> 7.00
CN(Cc1cc2nc(-c3cnc(N)nc3)nc(N3CCOCC3)c2s1)c1ncc(C(=O)NO)cn1	> 7.00
O=C(CCCCCCNCc1cc2nc(-c3cccc4[nH]ncc34)nc(N3CCOCC3)c2s1)NO	> 7.00
CC1COCC(C)N1c1nc(-c2cccc3[nH]ncc23)nc2cc(CN(C)c3ncc(C(=O)NO)cn3)sc12 (stereo unspecified)	6.00 to 7.00
CC(C)(Nc1ncc(C(=O)NO)cn1)c1cc2nc(-c3cccc4[nH]ncc34)nc(N3CCOCC3)c2s1	6.00 to 7.00
COCc1cccc(-c2nc(N3CCOCC3)c3sc(CN(C)c4ncc(C(=O)NO)cn4)cc3n2)c1	6.00 to 7.00
CN(Cc1cc2nc(-c3ccccc3CO)nc(N3CCOCC3)c2s1)c1ncc(C(=O)NO)cn1	6.00 to 7.00
Cc1ccc(-c2nc(N3CCOCC3)c3sc(CN(C)c4ncc(C(=O)NO)cn4)cc3n2)cc1	6.00 to 7.00
CN(Cc1cc2nc(-c3ccc(N)cc3)nc(N3CCOCC3)c2s1)c1ccc(C(=O)NO)cc1	6.00 to 7.00
NCCN(Cc1cc2nc(-c3cccc4[nH]ncc34)nc(N3CCOCC3)c2s1)c1ncc(C(=O)NO)cn1	> 7.00

Structure (SMILES)	pIC50
CN(Cc1cc2cc(-c3cccc4[nH]ncc34)nc(N3CCOCC3)c2s1)c1ncc(C(=O)NO)cn1	6.00 to 7.00
CN(Cc1cc2nc(-c3cccc4[nH]ncc34)nc(N3CCOCC3)c2s1)c1ccc(C(=O)NO)cc1	> 7.00
O=C(C=Cc1ccc(CNCc2cc3nc(-c4cccc5[nH]ncc45)nc(N4CCOCC4)c3s2)cc1)NO	6.00 to 7.00
O=C(NO)c1cnc(N2CCN(S(=O)(=O)c3cc4nc(-c5cccc6[nH]ncc56)nc(N5CCOCC5)c4s3)CC2)nc1	> 7.00
CCCCN(Cc1cc2nc(-c3cccc4[nH]ncc34)nc(N3CCOCC3)c2s1)c1ncc(C(=O)NO)cn1	6.00 to 7.00
CN(Cc1cc2nc(-c3cccc4[nH]ncc34)nc(NCCO)c2s1)c1ncc(C(=O)NO)cn1	6.00 to 7.00
CN(Cc1cc2nc(-c3ccc4[nH]cnc4c3)nc(N3CCOCC3)c2s1)c1ncc(C(=O)NO)cn1	> 7.00
CN(Cc1cc2nc(-c3cccc(CO)c3)nc(N3CCOCC3)c2s1)c1ncc(C(=O)NO)cn1	> 7.00
Cc1nc2ccc(-c3nc(N4CCOCC4)c4sc(CN(C)c5ncc(C(=O)NO)cn5)cc4n3)cc2[nH]1	> 7.00
O=C(NO)c1cnc(N(CCCO)Cc2cc3nc(-c4cccc5[nH]ncc45)nc(N4CCOCC4)c3s2)nc1	> 7.00
CN(Cc1cc2nc(-c3cccc4[nH]ccc34)nc(N3CCOCC3)c2s1)c1ncc(C(=O)NO)cn1	6.00 to 7.00
CCN(Cc1cc2nc(-c3cccc4[nH]ncc34)nc(N3CCOCC3)c2s1)c1ncc(C(=O)NO)cn1	> 7.00
Cc1c(CN(C)c2ncc(C(=O)NO)cn2)sc2c(N3CCOCC3)nc(-c3cccc4[nH]ncc34)nc12	6.00 to 7.00
O=C(C=Cc1ccc(S(=O)(=O)Nc2cc3nc(-c4cccc5[nH]ncc45)nc(N4CCOCC4)c3s2)cc1)NO	> 7.00
O=C(NO)c1ccc(CNCc2cc3nc(-c4cccc5[nH]ncc45)nc(N4CCOCC4)c3s2)cc1	6.00 to 7.00
COCCN(Cc1cc2nc(-c3cccc4[nH]ncc34)nc(N3CCOCC3)c2s1)c1ncc(C(=O)NO)cn1	> 7.00
CN(Cc1cc2nc(-c3cc(F)cc4[nH]ncc34)nc(N3CCOCC3)c2s1)c1ncc(C(=O)NO)cn1	> 7.00
CN(Cc1cc2nc(-c3ccc(N)nc3)nc(N3CCOCC3)c2s1)c1ncc(C(=O)NO)cn1	> 7.00
